Laboratory results taken from PubChem BioAssay AID1963448 (Molecular Pharmacology Branch, DTP, NCI, 2024).

Test system: 616215-338-R-J1-PDC complex spheroid growth, % test/control
Test: Anticancer human tumor 616215-338-R-J1-PDC patient-derived colon adenocarcinoma cell line growth inhibition [Asc]
Conditions: for IC50: curve of first compound; for viability, T/C: stronger effect = lower value
Description: Multicellular complex tumor spheroid response to apoptosis pathway targeting inhibitors Alrizomadlin, Pelcitoclax, and Dasminapant in combination with a variety of drugs and investigational agents in selected tumor cell lines
The MDM2 inhibitor alrizomadlin, the Bcl-2/Bcl-xL inhibitor pelcitoclax, and the IAPs inhibitor dasminapant were evaluated both individually and in combination with standard of care and investigational anticancer small molecules within a complex spheroid model of solid tumors. . Complex spheroids include a stromal component modeled by human endothelial cells (HUVEC) and fibroblasts modeled by human mesenchymal stem cells (MSCs). The concentration ranges selected for each drug and investigational agent were based upon clinically achievable concentrations if the clinical Cmax of the agent was known.
Compounds. The drugs and investigational agents: alrizomadlin (APG-115; NSC831270), pelcitoclax (APG-1252; NSC835773), dasminapant (APG-1387;NSC834197), TAK-243 (NSC785004), copanlisib (NSC809693), olaparib (NSC753686), talazoparib (NSC767125), cobimetinib (NSC 768068), eltanexor (KPT-8602, NSC 794443), abemaciclib (NSC 768073), sotorasib (NSC818433), adagrasib (NSC 831453), MRTX-1133 (NSC 836407), Iadademestat (ORY1001, NSC 806812), and RMC-4630 (NSC839698), were obtained from the NCI Developmental Therapeutics Program Chemical Repository. The FDA-approved anticancer drug set is available from the Developmental Therapeutics Program at https://dtp.cancer.gov/organization/dscb/obtaining/available plates.htm. […] The stock solutions were prepared in dimethyl sulfoxide (DMSO, Sigma-Aldrich, St. Louis, MO, cat. D2650) at 800-fold the tested concentration and stored at -70 degrees C prior to their use. All drugs and investigational agents were tested over a range starting from a high concentration at or near the clinical Cmax and decreasing in half-log increments. If the clinical Cmax for an agent had not been determined, the highest concentration tested was 10 microM.
The patient-derived cancer (PDC) cell lines include five colon adenocarcinomas: 186277-243-T-J2-PDC, 616215-338-R-J1-PDC, 439559-082-T-J2-PDC, 463943-066-T-J2-PDC, and 519858-162-T-J1-PDC; three pancreatic carcinomas: 323965-272-R-J2-PDC, 521955-158-R6-J3-PDC, and 521955-158-R2-J5-PDC; two uterine sarcomas: 327498-152-R-J2-PDC and 993429-296-R-J1-PDC; two rhabdomyosarcomas: 755483-174-R-J1-PDC and 772245-204-R-J1-PDC; two soft tissue sarcomas: 126254-015-R-J1-PDC and 494315-158-R-J1-PDC; two malignant fibrous histiocytomas: 317291-083-R-J1-PDC and 596521-263-R-J1-PDC; two breast carcinomas: 171881-019-R-J1-PDC and 885512-296-R-J2-PDC; and one ovarian carcinoma: 6556581-035-R-J-PDC were obtained from the NCI PDMR, (https://pdmr.cancer.gov). The established cell lines HSSY-2 synovial sarcoma (RRID:CVCL 8719), SYO-1 synovial sarcoma (RRID:CVCL_7146), MPNST malignant peripheral neural sheath tumor were obtained from the Sloan Kettering Institute. The following established cell lines were purchased from the American Type Culture Collection (ATCC, Manassas, VA), Sor the received from the NCI repository:, PANC-1 pancreatic carcinoma (CRL-1469, RRID:CVCL_0480), OVCAR-5 ovarian carcinoma (RRID:CVCL_1628), OVCAR-8 ovarian carcinoma (RRID:CVCL_1629), , MCF-7 breast carcinoma (CRL-12584, RRID:CVCL_0031), MDA-MB-231 breast carcinoma (CRL-12532, RRID:CVCL_0062), NCI-H1876 small cell lung carcinoma (CRL-5902, RRID:CVCL_1503), NCI-H510A small cell lung carcinoma (HTB-184, RRID:CVCL_1565), NCI-H1417 (CRL-5869, RRID:CVCL_1469), and NCI-H196 small cell lung carcinoma (CRL-5823, RRID:CVCL_1509). Dr. Peter Houghton (Greehey Children's Cancer Research Institute, University of Texas Health Science Center, San Antonio, TX) provided Rh-18 rhabdomyosarcoma (RRID:CVCL_1659). Pooled donor human umbilical vein endothelial cells (HUVEC, Lonza, cat. CC-2519) and human mesenchymal stem cells (hMSC, Lonza, cat. PT-2501) were purchased from Lonza (Walkersville, MD).
Cell Culture. […]
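Further: spheroids exposed to agents for seven days before readout.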
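Wherever viability, T/C is given: 100% = DMSO vehicle control viability.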

Which results are given for `C#Cc1c(F)ccc2cc(O)cc(-c3ncc4c(N5CC6CCC(C5)N6)nc(OCC56CCCN5CC(F)C6)nc4c3F)c12` (stereo not given) + Cc1c(S(C)(=O)=O)c(-c2cc(F)cc(N3CCN(c4ccc(NS(=O)(=O)c5ccc(NC(CCN6CCC(C(=O)OCCCP(=O)(O)O)CC6)CSc6ccccc6)c(S(=O)(=O)C(F)(F)F)c5)cc4)CC3)c2)c(-c2ccc(Cl)cc2)n1C(C)C?
IC50 (second compound 0.1 µM): > 10 µM; IC50 (second compound 0.316 µM): > 10 µM; IC50 (second compound 1 µM): 6.41 µM; IC50 (second compound 3.16 µM): < 0.0316 µM; IC50 (second compound 10 µM): < 0.0316 µM; viability, T/C (second compound 0.1 µM, first compound 0.0316 µM): 92.2%; viability, T/C (second compound 0.1 µM, first compound 0.1 µM): 88.2%; viability, T/C (second compound 0.1 µM, first compound 0.316 µM): 93.3%; viability, T/C (second compound 0.1 µM, first compound 1 µM): 98.2%; viability, T/C (second compound 0.1 µM, first compound 3.16 µM): 87.5%; viability, T/C (second compound 0.1 µM, first compound 10 µM): 56.6%; viability, T/C (second compound 0.316 µM, first compound 0.0316 µM): 96.6%; viability, T/C (second compound 0.316 µM, first compound 0.1 µM): 91.9%; viability, T/C (second compound 0.316 µM, first compound 0.316 µM): 88.8%; viability, T/C (second compound 0.316 µM, first compound 1 µM): 97.4%; viability, T/C (second compound 0.316 µM, first compound 3.16 µM): 72.1%; viability, T/C (second compound 0.316 µM, first compound 10 µM): 52%; viability, T/C (second compound 1 µM, first compound 0.0316 µM): 68.8%; viability, T/C (second compound 1 µM, first compound 0.1 µM): 70%; viability, T/C (second compound 1 µM, first compound 0.316 µM): 66.8%; viability, T/C (second compound 1 µM, first compound 1 µM): 68.2%; viability, T/C (second compound 1 µM, first compound 3.16 µM): 61.1%; viability, T/C (second compound 1 µM, first compound 10 µM): 42.8%; viability, T/C (second compound 3.16 µM, first compound 0.0316 µM): 39.5%; viability, T/C (second compound 3.16 µM, first compound 0.1 µM): 38.8%; viability, T/C (second compound 3.16 µM, first compound 0.316 µM): 40.3%; viability, T/C (second compound 3.16 µM, first compound 1 µM): 39.6%; viability, T/C (second compound 3.16 µM, first compound 3.16 µM): 34.1%; viability, T/C (second compound 3.16 µM, first compound 10 µM): 9.96%; viability, T/C (second compound 10 µM, first compound 0.0316 µM): 29.7%; viability, T/C (second compound 10 µM, first compound 0.1 µM): 25.5%; viability, T/C (second compound 10 µM, first compound 0.316 µM): 29.8%; viability, T/C (second compound 10 µM, first compound 1 µM): 21.8%; viability, T/C (second compound 10 µM, first compound 3.16 µM): 10.8%; viability, T/C (second compound 10 µM, first compound 10 µM): 0.92%
